Data taken from ChEMBL document CHEMBL1201862, “PubChem BioAssay data set” (2004).
Activity calls are given as the source filed them.

How the values were obtained:
CHO = CHO cell viability loss, potency – luminescence, cytotoxicity control for TLR9-MyD88 binding inhibitor project, dose response (AID 588339); type: functional, cell-based, hamster; conditions: Cricetulus griseus;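 note: CHO cells stably coexpressing TLR9 and MyD88 fusions from primary screen; compound exposure lasted 48 hours before viability readout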
[1] = target: Fructose-bisphosphate aldolase (Mycobacterium tuberculosis, UniProt P9WQA3); assay: Fluorescence-based biochemical high throughput dose response assay for inhibitors of the fructose-bisphosphate aldolase (FBA) of M. tuberculosis.; type: functional
Cysteine protease ATG4B = target: T1, Cysteine protease ATG4B (Homo sapiens, UniProt Q9Y4P1); type: functional;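 note: Fluorescence-based dose-response confirmation assay measuring inhibition of ATG4B activity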
T1 sequence (Q9Y4P1 whole entry): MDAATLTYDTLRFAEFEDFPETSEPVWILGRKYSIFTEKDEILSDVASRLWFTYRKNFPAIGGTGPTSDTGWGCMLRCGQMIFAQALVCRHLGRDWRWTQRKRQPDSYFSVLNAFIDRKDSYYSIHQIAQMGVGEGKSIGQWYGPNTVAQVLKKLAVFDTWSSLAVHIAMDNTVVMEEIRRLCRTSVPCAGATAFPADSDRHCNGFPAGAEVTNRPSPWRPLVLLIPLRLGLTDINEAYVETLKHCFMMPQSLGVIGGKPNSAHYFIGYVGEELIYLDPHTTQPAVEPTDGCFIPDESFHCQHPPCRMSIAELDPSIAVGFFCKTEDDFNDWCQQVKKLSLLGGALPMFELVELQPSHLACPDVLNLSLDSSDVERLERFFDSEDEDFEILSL

Phospholipase A2 = Phospholipase A2 (Homo sapiens, UniProt P04054); type: functional;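 note: confirmatory dose-response counterscreen on phospholipase A2, testing hits that came from an ultra-high-throughput screen for ATG4B inhibitors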
BJ [2] = assay: BJ-TERT fibroblast viability loss – cell-based, RAS-independent, luminescence, dose response (AID 1933); type: functional; conditions: Homo sapiens
BJ [3] = assay: cells; type: functional, cell-based; conditions: Homo sapiens
BJ [4] = assay: BJ-TERT-LT-ST fibroblast viability loss – cell-based, RAS-independent, luminescence, dose response (AID 1935); type: functional; conditions: Homo sapiens;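 note: BJ fibroblasts immortalized with TERT plus LT and ST oncogenes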
[5] = DRD fibroblast viability loss – cell-based, non-viral oncogenic, luminescence, dose response (AID 1934); type: functional; conditions: Homo sapiens
BJ [6] = assay: growth inhibition of engineered Ras-driven BJ cells – cell-based, alamar blue fluorescence, cherrypicked samples, dose response (AID 2631); type: functional; conditions: Homo sapiens;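 note: confirmatory dose-response assay in RAS-dependent BJ fibroblasts engineered with TERT, LT and ST, with cytotoxicity read by fluorescence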
HEK293 [7] = assay: cells; type: functional, cell-based; conditions: Homo sapiens
[8] = target: T2, Nuclear receptor subfamily 0 group B member 1 (Homo sapiens, UniProt P51843); assay: Luminescence-based cell-based high throughput dose response assay for inhibitors of the orphan nuclear receptor subfamily 0, group B, member 1 (DAX1; NR0B1). [Related pubchem assays (depositor defined):AID504766, AID504790]; type: functional
T2 sequence (P51843 whole entry): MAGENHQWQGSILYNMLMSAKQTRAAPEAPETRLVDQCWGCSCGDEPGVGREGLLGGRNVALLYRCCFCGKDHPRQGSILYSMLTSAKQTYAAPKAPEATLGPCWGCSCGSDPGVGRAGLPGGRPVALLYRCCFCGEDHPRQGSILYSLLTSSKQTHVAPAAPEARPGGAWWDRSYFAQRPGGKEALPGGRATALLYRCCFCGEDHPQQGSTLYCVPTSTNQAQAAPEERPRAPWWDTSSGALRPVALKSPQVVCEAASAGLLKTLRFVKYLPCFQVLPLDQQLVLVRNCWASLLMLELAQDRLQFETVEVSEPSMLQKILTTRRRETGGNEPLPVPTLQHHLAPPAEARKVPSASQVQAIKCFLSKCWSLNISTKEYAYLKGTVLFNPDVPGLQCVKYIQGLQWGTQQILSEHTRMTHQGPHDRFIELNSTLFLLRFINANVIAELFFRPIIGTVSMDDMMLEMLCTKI

Cryptococcus neoformans = assay: PubChem AID 686997; type: functional, organism-based
HEK293 [9] = assay: inhibition of NOD1-driven NF-kB reporter – cell-based, luminescence, uHTS, primary screen (AID 1578); type: functional; conditions: Homo sapiens
HEK293 [10] = assay: cells; type: functional, cell-based; conditions: Homo sapiens; remark: listed apart in the source
HEK293 [11] = assay: cells; type: functional, cell-based; conditions: Homo sapiens; remark: listed apart in the source
[12] = target: Nucleotide-binding oligomerization domain-containing protein 2 (Homo sapiens, UniProt Q9HC29); assay: inhibition of NOD2-driven NF-kB reporter – cell-based, luminescence, uHTS, HEK293 (AID 1566); type: functional
HEK293 [13] = assay: NOD2 signaling inhibitors in MDP-stimulated cells, cell-based, uHTS, luminescence (AID 2001); type: functional; conditions: Homo sapiens
HEK293 [14] = assay: cells; type: functional, cell-based; conditions: Homo sapiens; remark: listed apart in the source
[15] = target: T3, Corticotropin-releasing factor receptor 2/Corticotropin-releasing factor-binding protein (Homo sapiens, UniProt P24387+Q13324); assay: Dose Response confirmation of uHTS hits for small molecule antagonists of the CRF-binding protein and CRF-R2 receptor complex.; type: functional; conditions: read-out: IC50_Mean
T3 sequence (Q13324 whole entry): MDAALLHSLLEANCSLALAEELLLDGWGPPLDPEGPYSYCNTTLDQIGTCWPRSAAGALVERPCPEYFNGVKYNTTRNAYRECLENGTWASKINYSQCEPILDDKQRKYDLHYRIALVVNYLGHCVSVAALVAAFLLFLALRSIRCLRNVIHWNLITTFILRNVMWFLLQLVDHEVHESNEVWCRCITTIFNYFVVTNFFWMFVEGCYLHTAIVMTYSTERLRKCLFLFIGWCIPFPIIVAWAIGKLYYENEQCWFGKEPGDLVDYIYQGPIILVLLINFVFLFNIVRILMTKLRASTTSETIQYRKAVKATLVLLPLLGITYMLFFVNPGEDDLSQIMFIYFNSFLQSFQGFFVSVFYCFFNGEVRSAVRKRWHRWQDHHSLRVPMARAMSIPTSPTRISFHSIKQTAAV
T3 sequence (P24387 whole entry): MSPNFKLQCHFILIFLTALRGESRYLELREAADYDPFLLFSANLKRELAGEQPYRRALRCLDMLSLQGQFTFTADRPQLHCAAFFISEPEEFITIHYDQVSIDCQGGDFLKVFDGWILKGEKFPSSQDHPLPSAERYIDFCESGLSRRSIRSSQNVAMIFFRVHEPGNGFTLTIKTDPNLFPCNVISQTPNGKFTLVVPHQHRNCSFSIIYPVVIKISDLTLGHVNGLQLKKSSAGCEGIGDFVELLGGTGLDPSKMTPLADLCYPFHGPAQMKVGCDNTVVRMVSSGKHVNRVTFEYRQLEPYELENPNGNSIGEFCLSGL

[16] = target: T3, Corticotropin-releasing factor receptor 2/Corticotropin-releasing factor-binding protein; assay: activators of CRF receptor 2 with binding protein – uHTS hits, confirmation (AID 602473); type: functional; conditions: read-out: EC50_Mean
[17] = blockers of CRF-binding protein–CRF-R2 complex – cell-based, uHTS hits, 384-well, dose response (AID 651639); type: functional, Homo sapiens; conditions: read-out: IC50_Mean
[18] = viability loss in HeLa cells – cytotoxicity control for MgcRacGAP inhibitor project, dose response (AID 624300); type: functional
[19] = target: T4, Rac GTPase-activating protein 1 (Homo sapiens, UniProt Q9H0H5); assay: blockers of MgcRacGAP-driven Rac1 GTP hydrolysis – biochemical, ADP Hunter fluorescence, primary and confirmatory, confirmation (AID 624330); type: functional
T4 sequence (Q9H0H5 whole entry): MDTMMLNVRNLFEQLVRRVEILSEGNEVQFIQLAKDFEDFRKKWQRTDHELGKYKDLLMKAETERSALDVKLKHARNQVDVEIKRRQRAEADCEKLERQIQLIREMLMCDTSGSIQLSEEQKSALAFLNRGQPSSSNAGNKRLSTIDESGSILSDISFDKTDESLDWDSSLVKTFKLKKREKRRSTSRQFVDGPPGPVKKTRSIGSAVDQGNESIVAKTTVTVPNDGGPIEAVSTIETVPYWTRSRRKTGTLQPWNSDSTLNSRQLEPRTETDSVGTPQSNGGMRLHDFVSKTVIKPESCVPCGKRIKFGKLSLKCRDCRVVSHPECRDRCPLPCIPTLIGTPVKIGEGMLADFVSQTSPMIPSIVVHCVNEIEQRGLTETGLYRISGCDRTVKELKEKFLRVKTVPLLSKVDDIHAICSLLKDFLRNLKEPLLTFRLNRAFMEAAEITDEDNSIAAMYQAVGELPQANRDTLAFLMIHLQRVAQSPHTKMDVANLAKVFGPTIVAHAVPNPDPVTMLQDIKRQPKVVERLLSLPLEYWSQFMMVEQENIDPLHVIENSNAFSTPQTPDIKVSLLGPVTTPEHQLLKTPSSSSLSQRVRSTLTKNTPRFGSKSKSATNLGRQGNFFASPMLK

Sequence of Phospholipase A2 (P04054 whole entry): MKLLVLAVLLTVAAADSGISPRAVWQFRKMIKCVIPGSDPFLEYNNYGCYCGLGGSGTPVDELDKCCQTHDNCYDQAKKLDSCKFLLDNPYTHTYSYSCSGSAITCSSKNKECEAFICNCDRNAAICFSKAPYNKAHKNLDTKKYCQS
Sequence of Fructose-bisphosphate aldolase (P9WQA3 whole entry): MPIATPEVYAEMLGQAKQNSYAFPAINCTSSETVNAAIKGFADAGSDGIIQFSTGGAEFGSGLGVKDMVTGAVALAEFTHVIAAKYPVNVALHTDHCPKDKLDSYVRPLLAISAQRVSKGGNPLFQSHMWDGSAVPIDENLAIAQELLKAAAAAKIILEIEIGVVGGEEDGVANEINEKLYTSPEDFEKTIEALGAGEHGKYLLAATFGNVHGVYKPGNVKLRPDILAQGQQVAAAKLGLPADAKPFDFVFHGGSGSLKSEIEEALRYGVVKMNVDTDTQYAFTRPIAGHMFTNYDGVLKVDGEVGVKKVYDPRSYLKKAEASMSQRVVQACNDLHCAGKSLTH
Sequence of Nucleotide-binding oligomerization domain-containing protein 2 (Q9HC29 whole entry, the tested form may be a part): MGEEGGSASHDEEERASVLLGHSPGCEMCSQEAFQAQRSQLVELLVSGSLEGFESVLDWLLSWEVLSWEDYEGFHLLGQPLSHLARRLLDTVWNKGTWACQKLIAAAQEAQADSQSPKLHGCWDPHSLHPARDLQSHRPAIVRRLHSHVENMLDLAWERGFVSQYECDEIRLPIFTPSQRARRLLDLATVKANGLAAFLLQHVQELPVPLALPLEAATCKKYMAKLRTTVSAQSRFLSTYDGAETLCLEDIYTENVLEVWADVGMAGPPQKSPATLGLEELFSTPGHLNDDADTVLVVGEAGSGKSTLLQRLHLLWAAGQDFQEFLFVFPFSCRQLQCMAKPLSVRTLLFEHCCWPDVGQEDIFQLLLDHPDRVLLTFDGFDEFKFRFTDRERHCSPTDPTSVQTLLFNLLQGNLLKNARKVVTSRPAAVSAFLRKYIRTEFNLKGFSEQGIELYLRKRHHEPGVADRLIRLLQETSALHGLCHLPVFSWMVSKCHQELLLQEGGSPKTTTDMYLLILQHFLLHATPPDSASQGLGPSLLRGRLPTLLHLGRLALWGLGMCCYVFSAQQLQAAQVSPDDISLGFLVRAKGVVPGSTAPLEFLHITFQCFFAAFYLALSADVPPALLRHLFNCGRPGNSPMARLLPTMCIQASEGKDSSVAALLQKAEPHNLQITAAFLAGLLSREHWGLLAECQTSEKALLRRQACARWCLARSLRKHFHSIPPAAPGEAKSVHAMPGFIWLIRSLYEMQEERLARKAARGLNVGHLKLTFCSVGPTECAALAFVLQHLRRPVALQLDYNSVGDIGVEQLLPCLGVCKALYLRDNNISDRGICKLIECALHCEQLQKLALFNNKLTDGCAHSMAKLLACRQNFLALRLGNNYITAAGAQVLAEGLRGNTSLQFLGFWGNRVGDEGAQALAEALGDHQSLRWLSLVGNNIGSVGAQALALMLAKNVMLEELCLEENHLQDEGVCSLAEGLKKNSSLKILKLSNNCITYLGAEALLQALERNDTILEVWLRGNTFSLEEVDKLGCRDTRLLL

Compound: CCCCNC(=O)COC(=O)c1c2c(nc3ccccc13)/C(=C/c1cccs1)CC2
- IC50 (CHO): > 49.7 µM (inactive)

Compound: COc1ccc2nc3c(O)n4c(nc-3c2c1)SCC4
- IC50 [1]: 1.4 µM (active)

Compound: Nc1nn(-c2ccccc2)c(N)c1N=Nc1ccc2c(c1)OCO2
- IC50 (Cysteine protease ATG4B): 15.9 µM (active)
- IC50 (Phospholipase A2): 10.4 µM (active)

Compound: O=C(/C=C\c1ccco1)Nc1cc([N+](=O)[O-])ccc1F
- EC50 (BJ [2]): 1.44 µM (active)
- EC50 (BJ [3]): 2.06 µM (active)
- EC50 (BJ [4]): 0.821 µM (active)
- EC50 [5]: 1.17 µM (active)
- EC50 (BJ [6]): 0.42 µM (active)

Compound: O=C(COC(=O)CN1C(=O)NC2(CCCC2)C1=O)Nc1ccccc1C(F)(F)F
- IC50 (HEK293 [7]): > 67.5 µM (inactive)
- IC50 [8]: > 67.5 µM (inactive)

Compound: O=S(=O)(NCc1ccc2c(c1)OCO2)c1ccc(F)cc1
- IC50 (HEK293 [7]): > 67.6 µM (inactive)
- IC50 [8]: > 67.6 µM (inactive)

Compound: COC(=O)C1=C(C)N(Cc2ccc(F)cc2)C(=S)NC1c1cccc(Cl)c1 (stereo unspecified)
- AC50 (Cryptococcus neoformans): 49.5 µM (active)
- AC50 (Cryptococcus neoformans; Cryptococcus neoformans): > 70 µM (inactive)

Compound: Cc1[nH]n(-c2cccc(Cl)c2)c(=O)c1-c1ccc(Cl)cc1
- EC50 (HEK293 [9]): 2.43 µM (active)
- IC50 (HEK293 [10]): 14.2 µM (active)
- IC50 (HEK293 [11]): > 20 µM (inactive)
- EC50 [12]: 12.8 µM (active)
- IC50 (HEK293 [13]): 9.97 µM (inactive)
- IC50 (HEK293 [14]): > 20 µM (inactive)
- IC50 [15]: 0.98 µM (active)
- EC50 [16]: > 53 µM (inactive)
- IC50 [17]: > 20 µM (inactive)
- CC50 [18]: 100 µM (active)
- IC50 [19]: 80 µM (active)
